How the values were obtained:
[1] = 101.33 kPa, Liquid, Vibrating tube method
[2] = mn = molality of the nth substance listed, in mol/kg; details: 100 kPa, Liquid, Vibrating tube method

CCCCCCCC[n+]1ccn(CCCC)c1.[Br-] [1-butyl-3-octyl-1H-imidazolium bromide]
[1]
Details | mass density [kg/m3]
293.15 K | 1123.09
298.15 K | 1119.72
303.15 K | 1116.27
308.15 K | 1112.79
313.15 K | 1109.25
318.15 K | 1105.74
323.15 K | 1102.23

CCCCCCCC[n+]1ccn(CCCC)c1.[Br-] [1-butyl-3-octyl-1H-imidazolium bromide] + O
mass density [kg/m3], [2]
Details | m1 = 0.0055 | m1 = 0.01 | m1 = 0.015 | m1 = 0.0216 | m1 = 0.0285 | m1 = 0.0346 | m1 = 0.0412 | m1 = 0.0498
293.15 K | 998.38 | 998.55 | 998.75 | 999.02 | 999.32 | 999.58 | 999.85 | 1000.22
298.15 K | 997.16 | 997.36 | 997.53 | 997.77 | 998.04 | 998.28 | 998.54 | 998.88
303.15 K | 995.68 | 995.77 | 995.96 | 996.2 | 996.48 | 996.71 | 996.97 | 997.31
308.15 K | 994.05 | 994.08 | 994.1 | 994.32 | 994.61 | 994.83 | 995.08 | 995.4

CCCCCC[n+]1ccn(CC)c1.[Br-] [1-ethyl-3-hexyl-1H-imidazolium bromide]
[1]
Details | mass density [kg/m3]
293.15 K | 1197.06
298.15 K | 1193.59
303.15 K | 1190.1
308.15 K | 1186.58
313.15 K | 1183.02
318.15 K | 1179.46
323.15 K | 1175.88

CCCCCC[n+]1ccn(CC)c1.[Br-] [1-ethyl-3-hexyl-1H-imidazolium bromide] + O
mass density [kg/m3], [2]
Details | m1 = 0.0092 | m1 = 0.012 | m1 = 0.0168 | m1 = 0.02 | m1 = 0.0248 | m1 = 0.0295 | m1 = 0.0358 | m1 = 0.0432 | m1 = 0.0495
293.15 K | 998.59 | 998.73 | 998.92 | 999.06 | 999.26 | 999.47 | 999.75 | 1000.07 | 1000.35
298.15 K | 997.35 | 997.48 | 997.66 | 997.79 | 998 | 998.2 | 998.48 | 998.8 | 999.08
303.15 K | 995.82 | 995.93 | 996.11 | 996.24 | 996.43 | 996.64 | 996.9 | 997.21 | 997.48
308.15 K | 994.05 | 994.09 | 994.21 | 994.33 | 994.51 | 994.7 | 994.96 | 995.26 | 995.51
